Measured values reported in patent US8455528B2, “Imidazole derivatives useful as inhibitors of FAAH” (Merck Sharp & Dohme Corp., priority 2008, dated 2013).
pIC50: −log10 of the molar value. Where a name gives a salt, the structure may show the parent alone.

These compounds were tested against T1, Human FAAH (Homo sapiens, UniProt O00519) (assay: Human FAAH lysate assay (CHO cell lysate, AAMCA fluorescent substrate)). Conditions: FAAH inhibition, CHO cell lysate expressing human FAAH; read-out: Human Lysate.
T1 construct: The full length FAAH was subcloned into the mammalian expression vector, pcDEF.neo; expressed in transfected cells
T1 sequence (O00519 1-579): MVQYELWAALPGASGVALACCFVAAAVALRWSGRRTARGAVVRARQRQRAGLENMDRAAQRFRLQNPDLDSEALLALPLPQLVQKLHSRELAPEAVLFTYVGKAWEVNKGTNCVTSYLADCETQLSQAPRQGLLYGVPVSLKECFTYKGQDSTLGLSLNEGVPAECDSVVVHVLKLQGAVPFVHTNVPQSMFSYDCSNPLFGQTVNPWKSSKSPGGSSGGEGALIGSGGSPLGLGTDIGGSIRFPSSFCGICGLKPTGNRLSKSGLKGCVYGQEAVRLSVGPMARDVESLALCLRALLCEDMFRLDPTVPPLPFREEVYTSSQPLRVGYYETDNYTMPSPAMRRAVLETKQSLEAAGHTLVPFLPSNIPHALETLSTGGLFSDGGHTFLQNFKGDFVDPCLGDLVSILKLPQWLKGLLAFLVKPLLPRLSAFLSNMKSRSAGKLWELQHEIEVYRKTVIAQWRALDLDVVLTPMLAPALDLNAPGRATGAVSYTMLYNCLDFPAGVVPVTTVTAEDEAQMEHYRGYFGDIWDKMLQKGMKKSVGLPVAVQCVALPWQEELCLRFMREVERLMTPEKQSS
Type: biochemical
Excerpt: To assist in assay development stable cell lines for human, murine and rat full length FAAH were developed. Human FAAH cDNA (Accession No: NM-001441.1) was purchased from Origene (Rockville, Md.). The full length FAAH was subcloned into the mammalian expression vector, pcDEF.neo, using XbaI and EcoRI restriction sites and used for stable cell line generation. CHO cells expressing FAAH were used to prepare either crude cell lysate or microsome fractions. To harvest cells, tissue culture media was decanted, the monolayer washed three times with Ca^++Mg^++ free PBS and cells recovered after 15 min in enzyme free dissociation media (Millipore Corp, Billerica, Mass.). Cells were collected by centrifuging at 2000 rpm for 15 min. and the cell pellet re-suspended with 50 mM HEPES (pH 7.4) containing 1 mM EDTA and the protease inhibitors aprotinin (1 mg/ml) and leupeptin (100 μM). […] The pellet containing FAAH-enriched microsomes was re-suspend in 50 mM HEPES, (pH 7,4) 1 mM EDTA, and any remaining DNA sheared by passage of material through a 23 gauge needle and aliquots of enzyme were store at -80° C. prior to use. […] (American Radiolabeled Chemicals; 1 mCi/ml) with FAAH (Life Sciences (1995), 56, 1999-2005 and Journal of Pharmacology and Experimented Therapeutics (1997), 283, 729-734), Analytical. Biochemistry (2003), 318, 270-5. […] Analytical. Biochemistry (2005). 343, 143-51 […] Fluorescent release as a measure of FAAH activity was monitored by reading the plate in a CytoFluor Multiplate Reader ([…]). Whole cell assay is conducted with cells harvested after rinsing tissue culture flasks three times with Ca^++Mg^++ free PBS, incubating for 10 min in Enzyme free dissociation media and centrifuging for 5 minutes at 1,000 rpm in table top centrifuge. Cells are resuspended in assay buffer at desired cell number in (4×10^4 cells/assay in 96-well format; 1×10^4 cells/assay in 384-well format) and assayed as described. […] The reaction was terminated by addition of 2 volumes of chloroform:methanol (1:1) and mixed by vortexing. […] K., et al. A fluorescence-based assay for fatty acid amide hydrolase compatible with high-throughput screening. Anal. Biochem. 343:143-51 (2005) • Wilson S. J., et l. A high-throughput-compatible assay for determining the activity of fatty acid amide hydrolase. Anal Biochem. 318:270-5 (2003).
In the case of `Cn1c(-c2ccccc2)nc(Sc2ccc(Cl)cc2)c1-c1ccc(C#N)cc1` [Ex 3, 4-{4-[(4-chlorophenyl)thio]-1-methyl-2-phenyl-1H-imidazol-5-yl}benzonitrile], the pIC50 was 6.43.

Same assay, conditions: human FAAH lysate; read-out: Human FAAH lysate assay: IC50
In the case of `Cn1c(-c2ccccn2)nc(-c2ccc(S(C)(=O)=O)nc2)c1Sc1ccc(Cl)cn1` [Example 100, 5-Chloro-2-({1-methyl-4-[6-(methylsulfonyl)pyridin-3-yl]-2-pyridin-2-yl-1H-imidazol-5-yl}thio)pyridine], the pIC50 was 7.32. Work on `Cn1c(-c2ccccn2)nc(-c2ccc(C(C)(C)O)nc2)c1Sc1ccc(Cl)cc1` [Example 105, 2-(5-{5-[(4-Chlorophenyl)thio]-1-methyl-2-pyridin-2-yl-1H-imidazol-4-yl}pyridin-2-yl)propan-2-ol] yielded a pIC50 of 7.42. `Cn1c(-c2ccccn2)nc(-c2ccc(-c3ccco3)cc2)c1Sc1ccc(Cl)cc1` [Example 116, 5-[(4-chlorophenyl)thio]-4-[4-(2-furyl)phenyl]-1-methyl-2-pyridin-2-yl-1H-imidazol-3-ium trifluoroacetate] gave a pIC50 of 7.76. In the case of `Cn1c(-c2ccccn2)nc(-c2ccc(-c3nccs3)cc2)c1Sc1ccc(Cl)cc1` [Example 119, 2-{5-[(4-chlorophenyl)thio]-1-methyl-4-[4-(1,3-thiazol-2-yl)phenyl]-1H-imidazol-2-yl}pyridine], the pIC50 was 7.84. For `Cn1cnc(-c2ccc(OC(C)(C)C(N)=O)cc2)c1Sc1ccc(Cl)cn1` [Example 124, 2-(4-{5-[(5-chloropyridin-2-yl)thio]-1-methyl-1H-imidazol-4-yl}phenoxy)-2-methylpropanamide], the pIC50 was 7.44. `Cn1cnc(-c2ccc(OC(C)(C)CO)cc2)c1Sc1ccc(Cl)cn1` [Example 125, 5-[(5-chloropyridin-2-yl)thio]-4-[4-(2-hydroxy-1,1-dimethylethoxy)phenyl]-1-methyl-1H-imidazol-3-ium trifluoroacetate] showed a pIC50 of 6.70. `Cn1cnc(-c2ccc(OC(C)(C)C(O)C(F)(F)F)cc2)c1Sc1ccc(Cl)cn1` (stereo not drawn) [Example 126, 3-(4-{5-[(5-chloropyridin-2-yl)thio]-1-methyl-1H-imidazol-4-yl}phenoxy)-1,1,1-trifluoro-3-methylbutan-2-ol] was tested, and the pIC50 was 6.73. `CC(CO)NC(=O)c1ccc(-c2nc(-c3ccccn3)n(C)c2Sc2ccc(Cl)cc2)cc1` (stereo not drawn) [Example 127, 4-{5-[(4-chlorophenyl)thio]-1-methyl-2-pyridin-2-yl-1H-imidazol-4-yl}-N-(2-hydroxy-1-methylethyl)benzamide] gave a pIC50 of 7.11. `CS(=O)(=O)c1ccc(-c2nc3n(c2Sc2ccc(Cl)cc2)CCC2CCCNC32)cc1` (stereo not drawn) [Example 128, 3-[(4-chlorophenyl)thio]-2-[4-(methylsulfonyl)phenyl]-5,6,6a,7,8,9,10,10a-octahydroimidazo[1,2-h]-1,7-naphthyridine] showed a pIC50 of 7.01. With `CC(C)(O)c1ccc(-c2nc3c4ncccc4ccn3c2Sc2ccc(Cl)cc2)cc1` [Example 130, 2-(4-{3-[(4-chlorophenyl)sulfanyl]imidazo[1,2-h][1,7]naphthyridin-2-yl}phenyl)propan-2-ol] the pIC50 was 7.33. In the case of `Cn1c(C2CC2)nc(-c2ccc3nc(C(F)F)ccc3c2)c1Sc1ccc(Cl)cn1` [Example 131, 6-{5-[(5-chloropyridin-2-sulfanyl]-2-cyclopropyl-1-methyl-1H-imidazol-4-yl}-2-difluoromethyl)quinoline], the pIC50 was 7.75. `Cn1c(I)nc(-c2ccc(S(C)(=O)=O)cc2)c1Sc1ccc(Cl)cc1` [Example 133, 5-[(4-chlorophenyl)thio]-2-iodo-1-methyl-4-[4-(methylsulfonyl)phenyl]-1H-imidazole] was tested, and the pIC50 was 7.81. With `Cn1cc(-c2nc(-c3ccc(S(C)(=O)=O)cc3)c(Sc3ccc(Cl)cc3)n2C)cn1` [Example 134, 4-{5-[(4-chlorophenyl)sulfanyl]-1-methyl-4-[4-(methylsulfonyl)phenyl]-1H-imidazol-2-yl}-1-methyl-1H-pyrazole] the pIC50 was 7.86. Compound `Cn1c(-c2cccs2)nc(-c2ccc(S(C)(=O)=O)cc2)c1Sc1ccc(Cl)cc1` [Example 137, 5-[(4-chlorophenyl)sulfanyl]-1-methyl-4-[4-(methylsulfonyl)phenyl]-2-(thiophen-2-yl)-1H-imidazole] has a pIC50 of 7.78.

Same assay, conditions: human FAAH lysate; read-out: hFAAH lysate IC50
Compound `Cn1c(-c2ccccn2)nc(-c2ccc(S(C)(=O)=O)nc2)c1Sc1ccc(Cl)cc1` [Example 101] has a pIC50 of 8.20. With `Cn1c(-c2ccccn2)nc(-c2ccc(S(C)(=O)=O)nc2)c1Sc1ccc(F)cc1F` [Example 102] the pIC50 was 7.81. `Cn1c(-c2ccccn2)nc(-c2ccc(S(C)(=O)=O)nc2)c1Sc1ccc(F)c(F)c1` [Example 103] gave a pIC50 of 7.42. `COc1cnc(Sc2c(-c3ccc(S(C)(=O)=O)nc3)nc(-c3ccccn3)n2C)nc1` [Example 104] gave a pIC50 of 6.69. With `Cn1c(-c2ccccn2)nc(-c2ccc(C(C)(C)O)nc2)c1Sc1ccc(Cl)cn1` [Example 106] the pIC50 was 7.42. For `Cn1c(-c2ccccn2)nc(-c2ccc(C(C)(C)O)nc2)c1Sc1ccc(F)c(F)c1` [Example 107], the pIC50 was 7.22. `Cn1c(-c2ccccn2)nc(-c2ccc(C(C)(C)O)nc2)c1Sc1ccc(F)cc1F` [Example 108] gave a pIC50 of 7.48. Work on `Cn1c(-c2ccccn2)nc(-c2ccc(C(C)(C)O)nc2)c1Sc1ccc(F)cn1` [Example 109] yielded a pIC50 of 6.87. In the case of `Cn1c(-c2ccccn2)nc(-c2ccc(C(C)(C)O)nc2)c1Sc1ccc(Cl)cc1F` [Example 110], the pIC50 was 7.47. With `Cn1c(-c2ccc(F)c(F)c2)nc(-c2ccc(C(C)(C)O)nc2)c1Sc1ccc(Cl)cc1F` [Example 112] the pIC50 was 6.94. For `Cn1c(-c2ccc(F)cc2)nc(-c2ccc(C(C)(C)O)nc2)c1Sc1ccc(Cl)cc1F` [Example 113], the pIC50 was 7.17. Work on `Cn1c(-c2ccc(F)c(F)c2)nc(-c2ccc(C(C)(C)O)nc2)c1Sc1ccc(Cl)cc1` [Example 114] yielded a pIC50 of 7.06. Work on `Cn1c(-c2ccc(F)cc2)nc(-c2ccc(C(C)(C)O)nc2)c1Sc1ccc(Cl)cc1` [Example 115] yielded a pIC50 of 7.17. With `Cn1c(-c2ccccn2)nc(-c2ccc(-c3ccsc3)cc2)c1Sc1ccc(Cl)cc1` [Example 117] the pIC50 was 8.06. `Cn1c(-c2ccccn2)nc(-c2ccc(-c3ccncc3)cc2)c1Sc1ccc(Cl)cn1` [Example 118] was tested, and the pIC50 was 8.11. `Cn1c(-c2ccccn2)nc(-c2ccc(-c3ncco3)cc2)c1Sc1ccc(Cl)cn1` [Example 120] showed a pIC50 of 7.58. Compound `Cn1c(-c2ccccn2)nc(-c2ccc(-c3cccs3)cc2)c1Sc1ccc(Cl)cc1` [Example 121] has a pIC50 of 7.73. In the case of `Cn1c(-c2ccccn2)nc(-c2ccc(-c3ccnnc3)cc2)c1Sc1ccc(Cl)cn1` [Example 122], the pIC50 was 7.80. Work on `COC(=O)c1ccc(-c2nc3c4ncccc4ccn3c2Sc2ccc(Cl)cc2)cc1` [Example 129] yielded a pIC50 of 7.92. `CN(C)C(=O)c1ccc2cc(-c3nc(C4CC4)n(C)c3Sc3ccc(Cl)cn3)ccc2n1` [Example 132, 6-{5-[(5-chloropyridin-2-yl)thio]-2-cyclopropyl-1-methyl-1H-imidazol-4-yl}-N,N-dimethylquinoline-2-carboxamide] was tested, and the pIC50 was 6.84. `Cn1c(-c2ccsc2)nc(-c2ccc(S(C)(=O)=O)cc2)c1Sc1ccc(Cl)cc1` [Example 135] gave a pIC50 of 7.59. In the case of `COc1ccc(-c2nc(-c3ccc(S(C)(=O)=O)cc3)c(Sc3ccc(Cl)cc3)n2C)cn1` [Example 136], the pIC50 was 6.91. `Cn1c(-c2nccs2)nc(-c2ccc(S(C)(=O)=O)cc2)c1Sc1ccc(Cl)cc1` [Example 138] gave a pIC50 of 7.61. In the case of `Cn1c(-c2ncco2)nc(-c2ccc(S(C)(=O)=O)cc2)c1Sc1ccc(Cl)cc1` [Example 139], the pIC50 was 7.67.
